Patent US11919854B2, “P2RX7 modulators in therapy” (Centre national de la recherche scientifique, priority 2018, dated 2024)
Entries after “also recorded” stand apart in the source; their conditions may differ.

Tests used:
mouse P2RX7 (mP2RX7) = target: T1, mouse P2RX7 (mP2RX7) (Mus musculus, UniProt Q9Z1M0); test: Channel activity (Fluo4-AM) and large pore opening (Topro3) by flow cytometry, HEK cells expressing mP2RX7, 1 h BzATP; type: cell-based
T1 construct: expressed in transfected cells; host or cells: HEK cells
T1 sequence (Q9Z1M0 1-595): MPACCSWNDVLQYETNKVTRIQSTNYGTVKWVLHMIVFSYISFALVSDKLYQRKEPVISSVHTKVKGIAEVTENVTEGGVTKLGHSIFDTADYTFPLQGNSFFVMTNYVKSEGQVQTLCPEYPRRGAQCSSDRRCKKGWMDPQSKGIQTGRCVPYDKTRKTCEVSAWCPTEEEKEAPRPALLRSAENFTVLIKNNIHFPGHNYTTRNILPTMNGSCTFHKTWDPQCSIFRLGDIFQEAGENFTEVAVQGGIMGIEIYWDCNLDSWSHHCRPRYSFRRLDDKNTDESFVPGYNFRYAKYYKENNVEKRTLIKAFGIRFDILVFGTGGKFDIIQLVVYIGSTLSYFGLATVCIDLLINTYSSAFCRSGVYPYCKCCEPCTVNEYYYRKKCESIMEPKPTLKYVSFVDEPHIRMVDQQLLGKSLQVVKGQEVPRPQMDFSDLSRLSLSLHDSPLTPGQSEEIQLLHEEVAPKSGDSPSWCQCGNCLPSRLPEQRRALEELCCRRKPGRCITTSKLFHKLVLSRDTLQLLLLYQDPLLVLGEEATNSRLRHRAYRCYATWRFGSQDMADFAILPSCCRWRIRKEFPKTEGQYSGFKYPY
Method: Calcium channel activity (Fluo4AM probe) and large pore opening (Topro3 probe) were analysed by FACS on mP2RX7 HEK cells. Cells were non stimulated (NS) or treated with BzATP (500 μM) alone or in the presence of HEI2314, HEI2328, HEI2333 or HEI2336 (used at 50 μM).
Calcium channel activity (Fluo4AM probe) and large pore opening (Topro3 probe) were analysed by FACS on mock and mP2RX7 HEK cells. Cells were non stimulated (NS) or treated with BzATP (500 μM) alone or in the presence of HEI2328 used at 50 μM.
2.1. […] Cation channel activity is assayed with the Fluo4 AM (Invitrogen) probe and opening of large pore with Topro3 (Invitrogen). In each experiment 2×10^6 cells were incubated with 50 nM Fluo4-AM for 30 minutes. After washing, cells were treated with 500 μM BzATP (3′-O-(4-benzoyl)benzoyl ATP) for 1 h, or non-treated, in presence of the compounds of the invention at 50 μM. When indicated, the Topro3 probe (8.5 nM) was added during the 1 h stimulation time. Fluorescence was assayed by flow cytometry.

LLC = LLC tumor growth, HEI3090 combined with anti-PD-1 checkpoint inhibitor; type: in vivo, C57BL6J mice
Method: b-g Effect of HEI3090 and anti PD-1 checkpoint inhibitor on LLC tumor growth. 5.105 LLC were injected s.c. into the flank of C57BL6J mice. Mice were treated i.p. with vehicle (PBS, 10% DMSO) or with HEI3090 (1.5 mg/kg in PBS, 10% DMSO) from day 1 to day 18. Each mouse received 200 μg of anti PD-1 i.p. at day 4.7.10.13 and 16. Tumor sizes were measured from day 1 to day 90. Mice were sacrificed when tumor reached 100 mm2. For contralateral re-challenge, cured mice or naive age matched C57BL6J mice were injected s.c. in the opposite flank with 2.105 LLC. At day 150, re-challenged treated mice or C57BL/6J naive mice were sacrificed to sort CD8+ T cells. 2.105 CD8+ T cells were adoptively transferred in other C57BL6J naive mice. Then mice were injected s.c with 2.105 LLC (b). Spaghetti plots of LLC tumor growth of vehicle and anti-PD-1 treated mice or HEI3090 and anti-PD-1 treated mice (c). Each curve represents one mouse. Survival curves of mice treated with vehicle or HEI3090 and isotype control or vehicle or HEI3090 and anti-PD-1 (d). Tumor growth and survival curves after re-challenge of cured mice treated with HEI3090 and anti-PD-1 or age matched C57BL/6J mice (e,f). Tumor growth after i.v. injection of CD8+ T cells from naïve mice or re-challenged treated mice (g).

SMILES	Topro3 positive cells (mouse P2RX7 (mP2RX7); HEI2328 50 μM combined with BzATP 500 μM, 1 h, mP2RX7 cells) [%]	channel activity (Fluo4-AM) (mouse P2RX7 (mP2RX7); combined with BzATP 500 μM, 1 h stimulation)	Topro3 entry (large pore opening) (mouse P2RX7 (mP2RX7); compound 50 μM, BzATP 500 μM, 1 h, mP2RX7 HEK cells)	channel activity and large pore opening, compound alone (mouse P2RX7 (mP2RX7); used alone (no BzATP) on Mock and mP2RX7 cells, 50 μM)	cure of tumor bearing mice (LLC; HEI3090 1.5 mg/kg ip day 1-18 combined with anti PD-1 200 μg ip)	memory T cell response (LLC; HEI3090 combined with anti PD-1, re-challenge of cured mice)
O=C(NCc1ccc(Cl)cc1Cl)[C@@H]1CCC(=O)N1C(=O)Nc1ccc(Cl)c(Cl)c1 [HEI2328, (S)—N^2-(2,4-Dichlorobenzyl)-N^1-(3,4-dichlorophenyl)-5-oxopyrrolidine-1,2-dicarboxamide]	61	did not impact channel activity	increase Topro3 entry only in presence of BzATP; also recorded: most active	did induce neither channel activity nor large pore opening	–	–
O=C(NCc1ccc(Cl)cc1Cl)[C@@H]1CCC(=O)N1C(=O)Nc1ccc(Cl)nc1 [HEI3090, (S)—N^1-(6-Chloropyridin-3-yl)-N^2-(2,4-dichlorobenzyl)-5-oxopyrrolidine-1,2-dicarboxamide]	–	–	–	–	cured mice bearing tumors	set up a memory T cell response
